Measured values taken from ChEMBL document CHEMBL3885881, “DrugMatrix”.

Species: Rattus norvegicus
Assay: DrugMatrix - Regimen: Daily Repeat
Format: toxicity, organism-based, Sprague-Dawley
Set-up: regimen Daily Repeat, gender Male, age 6-8 weeks
Conditions: in vivo, po, route oral GAVAGE, vehicle 100 % WATER; for ABSOLUTE BASOPHIL / ABSOLUTE EOSINOPHIL / ABSOLUTE LYMPHOCYTE / ABSOLUTE MONOCYTE / ABSOLUTE SEGMENTED NEUTROPHIL / BASOPHIL / EOSINOPHIL / ERYTHROCYTE COUNT / HEMATOCRIT / HEMOGLOBIN / LEUKOCYTE COUNT / LYMPHOCYTE / MEAN CORPUSCULAR HEMOGLOBIN / MEAN CORPUSCULAR HEMOGLOBIN CONCENTRATION / MEAN CORPUSCULAR VOLUME / MONOCYTE / NEUTROPHIL / NUCLEATED RED BLOOD CELLS / PLATELET COUNT: tissue Blood; for ALANINE AMINOTRANSFERASE / ALKALINE PHOSPHATASE / ASPARTATE AMINOTRANSFERASE / BLOOD UREA NITROGEN / CARBON DIOXIDE / CHLORIDE / CHOLESTEROL / CREATINE PHOSPHOKINASE / CREATININE / GLUCOSE / LACTATE DEHYDROGENASE / LIPASE / PHOSPHORUS / POTASSIUM / SODIUM / TOTAL BILIRUBIN / TOTAL PROTEIN / URIC ACID: tissue Plasma
[1] = 22 mg/kg, 120 h, dose level Low, time 5 day
[2] = 320 mg/kg, 72 h, dose level High, time 3 day
[3] = 320 mg/kg, 120 h, dose level High, time 5 day

Structure (SMILES): COc1ccc(C(CN(C)C)C2(O)CCCCC2)cc1 (stereo unspecified) [VENLAFAXINE]
- ABSOLUTE BASOPHIL [1]: 0 CELLS/uL
- ABSOLUTE EOSINOPHIL [1]: 0 CELLS/uL
- ABSOLUTE LYMPHOCYTE [1]: 7105.33 CELLS/uL
- ABSOLUTE MONOCYTE [1]: 102.33 CELLS/uL
- ABSOLUTE SEGMENTED NEUTROPHIL [1]: 692.33 CELLS/uL
- BASOPHIL [1]: 0%
- EOSINOPHIL [1]: 0%
- ERYTHROCYTE COUNT [1]: 5.16 x10E6/uL
- HEMATOCRIT [1]: 32.4%
- HEMOGLOBIN [1]: 12.8 G/DL
- LEUKOCYTE COUNT [1]: 7.9 x10E3/uL
- LYMPHOCYTE [1]: 90%
- MEAN CORPUSCULAR HEMOGLOBIN [1]: 24.83 pg
- MEAN CORPUSCULAR HEMOGLOBIN CONCENTRATION [1]: 39.5 G/DL
- MEAN CORPUSCULAR VOLUME [1]: 62.73 fL
- MONOCYTE [1]: 1.33%
- NEUTROPHIL [1]: 8.67%
- NUCLEATED RED BLOOD CELLS [1]: 0 /100WBC
- PLATELET COUNT [1]: 1242 x10E3/uL
- ALANINE AMINOTRANSFERASE [1]: 58.67 u/L
- ALKALINE PHOSPHATASE [1]: 353 u/L
- ASPARTATE AMINOTRANSFERASE [1]: 97.67 u/L
- BLOOD UREA NITROGEN [1]: 15 mg/dL
- CARBON DIOXIDE [1]: 29 mmol/L
- CHLORIDE [1]: 106 MEQ/L
- CHOLESTEROL [1]: 81 mg/dL
- CREATINE PHOSPHOKINASE [1]: 155 u/L
- CREATININE [1]: 0.18 mg/dL
- GLUCOSE [1]: 132.33 mg/dL
- LACTATE DEHYDROGENASE [1]: 132 u/L
- LIPASE [1]: 9.67 u/L
- PHOSPHORUS [1]: 11.27 mg/dL
- POTASSIUM [1]: 6.7 MEQ/L
- SODIUM [1]: 152.17 MEQ/L
- TOTAL BILIRUBIN [1]: 0.17 mg/dL
- TOTAL PROTEIN [1]: 6.63 G/DL
- URIC ACID [1]: 1.17 mg/dL
- ABSOLUTE BASOPHIL [2]: 0 CELLS/uL
- ABSOLUTE EOSINOPHIL [2]: 0 CELLS/uL
- ABSOLUTE LYMPHOCYTE [2]: 16169.33 CELLS/uL
- ABSOLUTE MONOCYTE [2]: 308 CELLS/uL
- ABSOLUTE SEGMENTED NEUTROPHIL [2]: 1489.33 CELLS/uL
- BASOPHIL [2]: 0%
- EOSINOPHIL [2]: 0%
- ERYTHROCYTE COUNT [2]: 5.59 x10E6/uL
- HEMATOCRIT [2]: 35.1%
- HEMOGLOBIN [2]: 13.63 G/DL
- LEUKOCYTE COUNT [2]: 17.97 x10E3/uL
- LYMPHOCYTE [2]: 89.67%
- MEAN CORPUSCULAR HEMOGLOBIN [2]: 24.4 pg
- MEAN CORPUSCULAR HEMOGLOBIN CONCENTRATION [2]: 38.83 G/DL
- MEAN CORPUSCULAR VOLUME [2]: 62.7 fL
- MONOCYTE [2]: 1.67%
- NEUTROPHIL [2]: 8.67%
- NUCLEATED RED BLOOD CELLS [2]: 0 /100WBC
- PLATELET COUNT [2]: 1276.67 x10E3/uL
- ALANINE AMINOTRANSFERASE [2]: 53.67 u/L
- ALKALINE PHOSPHATASE [2]: 355.33 u/L
- ASPARTATE AMINOTRANSFERASE [2]: 109 u/L
- BLOOD UREA NITROGEN [2]: 14.33 mg/dL
- CARBON DIOXIDE [2]: 22.33 mmol/L
- CHLORIDE [2]: 104 MEQ/L
- CHOLESTEROL [2]: 67.67 mg/dL
- CREATINE PHOSPHOKINASE [2]: 922.67 u/L
- CREATININE [2]: 0.19 mg/dL
- GLUCOSE [2]: 204 mg/dL
- LACTATE DEHYDROGENASE [2]: 452.67 u/L
- LIPASE [2]: 10 u/L
- PHOSPHORUS [2]: 13.37 mg/dL
- POTASSIUM [2]: 5.82 MEQ/L
- SODIUM [2]: 147.33 MEQ/L
- TOTAL BILIRUBIN [2]: 0.17 mg/dL
- TOTAL PROTEIN [2]: 5.87 G/DL
- URIC ACID [2]: 1.9 mg/dL
- ABSOLUTE BASOPHIL [3]: 0 CELLS/uL
- ABSOLUTE EOSINOPHIL [3]: 0 CELLS/uL
- ABSOLUTE LYMPHOCYTE [3]: 15088.33 CELLS/uL
- ABSOLUTE MONOCYTE [3]: 152.33 CELLS/uL
- ABSOLUTE SEGMENTED NEUTROPHIL [3]: 1792.67 CELLS/uL
- BASOPHIL [3]: 0%
- EOSINOPHIL [3]: 0%
- ERYTHROCYTE COUNT [3]: 5.64 x10E6/uL
- HEMATOCRIT [3]: 34.3%
- HEMOGLOBIN [3]: 13.5 G/DL
- LEUKOCYTE COUNT [3]: 17.03 x10E3/uL
- LYMPHOCYTE [3]: 88.33%
- MEAN CORPUSCULAR HEMOGLOBIN [3]: 23.93 pg
- MEAN CORPUSCULAR HEMOGLOBIN CONCENTRATION [3]: 39.37 G/DL
- MEAN CORPUSCULAR VOLUME [3]: 60.83 fL
- MONOCYTE [3]: 1%
- NEUTROPHIL [3]: 10.67%
- NUCLEATED RED BLOOD CELLS [3]: 0 /100WBC
- PLATELET COUNT [3]: 1189 x10E3/uL
- ALANINE AMINOTRANSFERASE [3]: 58.33 u/L
- ALKALINE PHOSPHATASE [3]: 429.33 u/L
- ASPARTATE AMINOTRANSFERASE [3]: 79.33 u/L
- BLOOD UREA NITROGEN [3]: 16.67 mg/dL
- CARBON DIOXIDE [3]: 25 mmol/L
- CHLORIDE [3]: 106 MEQ/L
- CHOLESTEROL [3]: 72.33 mg/dL
- CREATINE PHOSPHOKINASE [3]: 133.33 u/L
- CREATININE [3]: 0.2 mg/dL
- GLUCOSE [3]: 162.33 mg/dL
- LACTATE DEHYDROGENASE [3]: 100 u/L
- LIPASE [3]: 10 u/L
- PHOSPHORUS [3]: 13.67 mg/dL
- POTASSIUM [3]: 6.24 MEQ/L
- SODIUM [3]: 150.03 MEQ/L
- TOTAL BILIRUBIN [3]: 0.13 mg/dL
- TOTAL PROTEIN [3]: 5.73 G/DL
- URIC ACID [3]: 1.4 mg/dL
